Where a name gives a salt, the structure may show the parent alone. Read-outs that look alike come from different tables or passages of the source.
Experiments:
HCV gT3a replicon = assay: HCV replicon assay, gT3a; type: cell-based, Hepatitis C virus (HCV)
Experimental: (§1) The HCV replicon assay was used to determine the antiviral activity of compounds of general formula 2 (test compounds). The test cell line used in the HCV Replicon Assay was the human hepatoma cell line Huh7 incorporating the HCV replicons synthesized by an outside vendor.
(§2) 96-well plates were seeded with cells at a density of 7.5×10^3 cells per well in 50 μl of assay media. The compound stock solution was made up freshly in an assay medium (DMEM 1×, Cellgro; cat. #10-013-CV) as a 2× stock. A total of 11 serial 3-fold dilutions of test compounds were prepared from the 2× stock in the assay media ranging from 20 nM-0.2 pM final concentrations. At least 4 hours after seeding the cells, compound treatment was initiated by adding 50 μl of compound dilution to the plates. The final concentrations of compound therefore ranged from 10 nM to 0.1 pM when diluted 1:1 in culture media. The final DMSO concentration was 0.5%. Cells and inhibitors were incubated for 3 days at 37° C./5% CO2. The media was removed from the plates by gentle tapping. The cells were fixed with 100 μl 1:1 acetone:methanol for 1 minute, washed three times with PBS buffer, and then blocked with 150 μl/well 10% Fetal Bovine Serum (FBS) in PBS for 1 hour at room temperature. The cells were then washed three times with PBS buffer and incubated with 100 μl/well anti-hepatitis C core mAb (Affinity BioReagents; cat. # MA1-080, 1 mg/ml stock diluted 1:4,000 in 10% FBS-PBS) for 2 hours at 37° C. Then, the cells were washed three times with PBS and incubated with 100 μl/well HRP-Goat Anti-Mouse antibody (diluted 1:3.500 in 10% FBS-PBS) for 1 hour at 37° C. The cells were then washed three times with PBS and developed with an OPD solution, 100 μl/well (1 OPD tablet+12 ml citrate/phosphate buffer+5 μl 30% H2O2 per plate), for 30 minutes in the dark at room temperature. The reaction was stopped with 2N H2SO4 (100 μl/well), and the absorbance was measured at A490 X on a Victor^3 V 1420 multilabel counter (Perkin Elmer).

HCV gT1b replicon = assay: HCV replicon assay, gT1b; type: cell-based, Hepatitis C virus (HCV); conditions: Hepatitis C virus, GT1B, Huh-7, Huh7 replicon cells, mean value
Experimental: as §1, §2

[1] = Cytotoxicity, cell viability by ATPLite Kit; type: cell-based, human; conditions: human, Huh7 cells (human hepatoma cell line), 10% FBS, maximal inhibition, read-out: Cytotox gT1b 10% FBS max. inh.
Experimental: The cytotoxicity of the test compounds was studied in parallel using the same cell line, Huh7. Cell viability was determined using the ATPLite Kit (Perkin-Elmer, Boston, USA), according to manufacturer's instructions. 96-well black/transparent bottom plates were seeded with cells at a density of 7.5×10^3 cells per well in 50 μl medium. After 18 hours, compound treatment was initiated by adding 50 μl of compound dilution into the plates. Each compound dilution was tested in triplicates. The cells and inhibitors were then incubated for 96 hours at 37° C./5% CO2. The plates were washed twice with PBS (0.2 ml/well), and then lysed by adding lysis buffer, 0.05 ml/well (all reagents were included with the ATPLite Kit). After rocking for 5 min on a rocking platform, substrate buffer was added (0.05 ml/well). After additional 5-min incubation, the plates were kept in dark for 10 min, and the luminescence was read using TopCount NXT (Packard, Perkin Elmer). CC50 values for all test compounds were determined using XLfit 4.1 software (Table 2).

HCV gT1a replicon = assay: HCV replicon assay, gT1a; type: cell-based, Hepatitis C virus (HCV); conditions: Hepatitis C virus, GT1A, Huh-7; Huh7 replicon cells; mean
Experimental: as §1, §2

HCV gT4a replicon = assay: HCV replicon assay, gT4a; type: cell-based, Hepatitis C virus (HCV); conditions: Hepatitis C virus, GT4A, Huh-7, read-out: gT4a, EC50 (pM) mean
Experimental: as §1, §2

HCV gT2a replicon = assay: HCV replicon assay, gT2a; type: cell-based, Hepatitis C virus (HCV); conditions: Hepatitis C virus, GT2A, Huh-7; Huh7 replicon cells; mean
Experimental: as §1, §2

HCV gT5a replicon = assay: HCV replicon assay, gT5a; type: cell-based, Hepatitis C virus (HCV); conditions: Hepatitis C virus, GT5A, Huh-7, read-out: gT5a, EC50 (pM) mean
Experimental: as §1, §2

[2] = Hepatitis C virus, GT3A, Huh-7, read-out: gT3a, EC50 (pM) mean, Huh7 replicon cells
[3] = 10% FBS, read-out: gT1b 10% FBS, EC50 (pM) mean
[4] = 40% NHS, read-out: gT1b 40% NHS, EC50 (pM) mean
[5] = Hepatitis C virus, GT3A, Huh-7, Huh7 replicon cells, mean, read-out: gT3a, EC50 (pM) mean

Question: Which results are given for `COC(=O)N[C@H](C(=O)N1CCC[C@H]1c1ncc(-c2cc(F)c(-c3ccc(-c4cnc([C@@H]5CCCN5C(=O)[C@H](NC(=O)OC)c5ccccc5)[nH]4)cc3)c(-c3ccccc3)c2)[nH]1)C(C)C` [2(26)•2HCl, ((S)-1-{(S)-2-[5-(6′-Fluoro-4-{2-[(S)-1-((R)-2-methoxycarbonylamino-2-phenyl-acetyl)-pyrrolidin-2-yl]-3H-imidazol-4-yl}-[1,1′;2′,1″]terphenyl-4′-yl)-1H-imidazol-2-yl]-pyrrolidine-1-carbonyl}-2-methyl-propyl)-carbamic acid methyl ester dihydrochloride]?
Answer: EC50 (HCV gT3a replicon; [2]): 9.2 pM; EC50 (HCV gT3a replicon; Huh7 replicon cells, mean, dihydrochloride, read-out: gT3a, EC50 (pM) mean): 9.8 pM; EC50 (HCV gT1b replicon; [3]): 3.2 pM; EC50 (HCV gT1b replicon; [4]): 14.5 pM; inhibition at 96 h [1]: 39%; EC50 (HCV gT1a replicon): 30.3 pM; EC50 (HCV gT4a replicon): 7.9 pM; EC50 (HCV gT2a replicon): 3.1 pM; EC50 (HCV gT5a replicon): 14.3 pM

Question: With `COC(=O)N[C@H](C(=O)N1CCC[C@H]1c1ncc(-c2ccc(-c3ccc(-c4cnc([C@@H]5CCCN5C(=O)[C@H](NC(=O)OC)c5ccccc5)[nH]4)cc3)c(Oc3ccccc3)c2)[nH]1)C(C)C` [2(23)•2HCl, ((S)-1-{(S)-2-[5-(4′-{2-[(S)-1-((R)-2-Methoxycarbonylamino-2-phenyl-acetyl)-pyrrolidin-2-yl]-3H-imidazol-4-yl}-2-phenoxy-biphenyl-4-yl)-1H-imidazol-2-yl]-pyrrolidine-1-carbonyl}-2-methyl-propyl)-carbamic acid methyl ester dihydrochloride] as the compound, how does the EC50 (HCV gT3a replicon; [5]) read?
Answer: 10.3 pM

Question: And the EC50 (HCV gT1b replicon; [3])?
Answer: 2.1 pM

Question: And the EC50 (HCV gT1b replicon; [4])?
Answer: 15.7 pM

Question: And the inhibition at 96 h [1]?
Answer: 27%

Question: And the EC50 (HCV gT1a replicon)?
Answer: 154 pM

Question: And the EC50 (HCV gT4a replicon)?
Answer: 5.4 pM

Question: And the EC50 (HCV gT2a replicon)?
Answer: 4.1 pM

Question: What about the EC50 (HCV gT5a replicon) of the same compound?
Answer: 13.6 pM

Question: Which EC50 (HCV gT3a replicon; [5]) does the source give for `COC(=O)N[C@H](C(=O)N1CCC[C@H]1c1ncc(-c2ccc(-c3ccc(-c4cnc([C@@H]5CCCN5C(=O)[C@H](NC(=O)OC)c5ccccc5)[nH]4)cc3)c(Sc3ccccc3)c2)[nH]1)C(C)C` [2(24)•2HCl, ((S)-1-{(S)-2-[5-(4′-{2-[(S)-1-((R)-2-Methoxycarbonylamino-2-phenyl-acetyl)-pyrrolidin-2-yl]-3H-imidazol-4-yl}-2-phenylsulfanyl-biphenyl-4-yl)-1H-imidazol-2-yl]-pyrrolidine-1-carbonyl}-2-methyl-propyl)-carbamic acid methyl ester dihydrochloride] here?
Answer: 28.5 pM

Question: And the EC50 (HCV gT1b replicon; [3])?
Answer: 1.33 pM

Question: What about the EC50 (HCV gT1b replicon; [4]) of the same compound?
Answer: 8.02 pM

Question: What about the inhibition at 96 h [1] of the same compound?
Answer: 42%

Question: What about the EC50 (HCV gT1a replicon) of the same compound?
Answer: 557 pM

Question: What about the EC50 (HCV gT4a replicon) of the same compound?
Answer: 8.3 pM

Question: What about the EC50 (HCV gT2a replicon) of the same compound?
Answer: 4 pM

Question: What about the EC50 (HCV gT5a replicon) of the same compound?
Answer: 21.6 pM

Question: For `COC(=O)N[C@H](C(=O)N1CCC[C@H]1c1ncc(-c2ccc(-c3ccc(-c4cnc([C@@H]5CCCN5C(=O)[C@H](NC(=O)OC)c5ccccc5)[nH]4)cc3)c(-c3ccccc3)c2)[nH]1)C(C)C` [2(22)•2HCl, ((S)-1-{(S)-2-[5-(4-{2-[(S)-1-((R)-2-Methoxycarbonylamino-2-phenyl-acetyl)-pyrrolidin-2-yl]-3H-imidazol-4-yl}-[1,1′;2′,1″]terphenyl-4′-yl)-1H-imidazol-2-yl]-pyrrolidine-1-carbonyl}-2-methyl-propyl)-carbamic acid methyl ester dihydrochloride], which EC50 (HCV gT3a replicon; [5]) is on record?
Answer: 16.6 pM

Question: And the EC50 (HCV gT1b replicon; [3])?
Answer: 2.58 pM

Question: And the EC50 (HCV gT1b replicon; [4])?
Answer: 38.8 pM

Question: What about the inhibition at 96 h [1] of the same compound?
Answer: 30%

Question: What about the EC50 (HCV gT1a replicon) of the same compound?
Answer: 117 pM

Question: And the EC50 (HCV gT4a replicon)?
Answer: 9.4 pM

Question: And the EC50 (HCV gT2a replicon)?
Answer: 3.9 pM

Question: And the EC50 (HCV gT5a replicon)?
Answer: 31.3 pM

Question: What does the source list for `COC(=O)N[C@H](C(=O)N1CCC[C@H]1c1ncc(-c2ccc(-c3ccc(-c4cnc([C@@H]5CCCN5C(=O)[C@H](NC(=O)OC)c5ccccc5)[nH]4)cc3)c(N(C)c3ccccc3)c2)[nH]1)C(C)C` [2(25)•2HCl, [(S)-1-((S)-2-{5-[4′-{2-[(S)-1-((R)-2-Methoxycarbonylamino-2-phenyl-acetyl)-pyrrolidin-2-yl]-3H-imidazol-4-yl}-2-(methyl-phenyl-amino)-biphenyl-4-yl]-1H-imidazol-2-yl}-pyrrolidine-1-carbonyl)-2-methyl-propyl]-carbamic acid methyl ester trihydrochloride]?
Answer: EC50 (HCV gT3a replicon; [5]): 24.2 pM; EC50 (HCV gT1b replicon; [3]): 1.72 pM; EC50 (HCV gT1b replicon; [4]): 11.5 pM; inhibition at 96 h [1]: 18%; EC50 (HCV gT1a replicon): 345 pM; EC50 (HCV gT4a replicon): 13.9 pM; EC50 (HCV gT2a replicon): 5.5 pM; EC50 (HCV gT5a replicon): 43.2 pM

Question: For `COC(=O)N[C@H](C(=O)N1CCC[C@H]1c1ncc(-c2ccc(C#CC#Cc3cnc([C@@H]4CCCN4C(=O)[C@H](NC(=O)OC)c4ccccc4)[nH]3)c(Oc3ccccc3)c2)[nH]1)C(C)C` [2(19)•2HCl, [(S)-1-((S)-2-{5-[4-(4-{2-[(S)-1-((R)-2-Methoxycarbonylamino-2-phenyl-acetyl)-pyrrolidin-2-yl]-3H-imidazol-4-yl}-buta-1,3-diynyl)-3-phenoxy-phenyl]-1H-imidazol-2-yl}-pyrrolidine-1-carbonyl)-2-methyl-propyl]-carbamic acid methyl ester dihydrochloride], which EC50 (HCV gT3a replicon; [2]) is on record?
Answer: 40.3 pM

Question: What about the EC50 (HCV gT1b replicon; [3]) of the same compound?
Answer: 1.53 pM

Question: What about the EC50 (HCV gT1b replicon; [4]) of the same compound?
Answer: 8.41 pM

Question: And the inhibition at 96 h [1]?
Answer: 38%

Question: What about the EC50 (HCV gT1a replicon) of the same compound?
Answer: 214 pM

Question: What about the EC50 (HCV gT4a replicon) of the same compound?
Answer: 6 pM

Question: And the EC50 (HCV gT2a replicon)?
Answer: 12.6 pM

Question: And the EC50 (HCV gT5a replicon)?
Answer: 18.8 pM

Question: With `COC(=O)N[C@H](C(=O)N1CCC[C@H]1c1ncc(-c2cc(F)c(C#CC#Cc3cnc([C@@H]4CCCN4C(=O)[C@H](NC(=O)OC)c4ccccc4)[nH]3)c(-c3ccccc3)c2)[nH]1)C(C)C` [2(17)•2HCl, [(S)-1-((S)-2-{5-[5-Fluoro-6-(4-{2-[(S)-1-((R)-2-methoxycarbonylamino-2-phenyl-acetyl)-pyrrolidin-2-yl]-3H-imidazol-4-yl}-buta-1,3-diynyl)-biphenyl-3-yl]-1H-imidazol-2-yl}-pyrrolidine-1-carbonyl)-2-methyl-propyl]-carbamic acid methyl ester dihydrochloride] as the compound, how does the EC50 (HCV gT3a replicon; [5]) read?
Answer: 20.1 pM

Question: And the EC50 (HCV gT1b replicon; [3])?
Answer: 1.36 pM

Question: What about the EC50 (HCV gT1b replicon; [4]) of the same compound?
Answer: 9.18 pM

Question: What about the inhibition at 96 h [1] of the same compound?
Answer: 22%

Question: And the EC50 (HCV gT1a replicon)?
Answer: 50.8 pM

Question: What about the EC50 (HCV gT4a replicon) of the same compound?
Answer: 11.8 pM

Question: And the EC50 (HCV gT2a replicon)?
Answer: 5 pM

Question: And the EC50 (HCV gT5a replicon)?
Answer: 26 pM

Question: Which EC50 (HCV gT1b replicon; [3]) does the source give for `COC(=O)N[C@H](C(=O)N1CCC[C@H]1c1ncc(C#CC#Cc2ccc(-c3cnc([C@@H]4CCCN4C(=O)[C@@H](NC(=O)OC)C(C)C)[nH]3)cc2-c2cccc(-c3ccccc3)c2)[nH]1)C(C)C` [2(3)•2HCl, [(S)-1-((S)-2-{5-[4-(5-{2-[(S)-1-((S)-2-Methoxycarbonylamino-3-methyl-butyryl)-pyrrolidin-2-yl]-3H-imidazol-4-yl}-[1,1′; 3′,1″]terphenyl-2-yl)-buta-1,3-diynyl]-1H-imidazol-2-yl}-pyrrolidine-1-carbonyl)-2-methyl-propyl]-carbamic acid methyl ester dihydrochloride] here?
Answer: 1.24 pM

Question: And the EC50 (HCV gT1b replicon; [4])?
Answer: 17.1 pM

Question: And the inhibition at 96 h [1]?
Answer: 29%

— patent US9790207B2, “Pan-genomic inhibitors of NS5A protein encoded by HCV, pharmaceutical compositions, intermediates for inhibitor synthesis, and their synthesis and application methods” (priority 2015, dated 2017)
